According to US20090215625A1, “Combinations of Herbicides and Safeners” (priority 2008, published 2009):
Read-outs that look alike come from different tables or passages of the source.

What was measured:
[1] = tested on: Lamium amplexicaule; assay: Broadleaf weed control (JSM 08-5), Lamium amplexicaule; assay type: in vivo
Excerpt: (§1) Treatments were applied with a CO2 pressurized spray system at a volume of 280 L ha^−1. A four nozzle spray boom utilizing 8002 XR flat fan nozzles (Spraying Systems, Inc, Wheaton, Ill.) on 25 cm spacing and a height of 25 cm was utilized. Spray pressure at the nozzle was 22 PSI and ground speed was 5 km/h. All treatments were applied with 0.25% v/v non-ionic surfactant (X-77 Non-Ionic Surfactant; Helena Chemical Company, Memphis, Tenn.).

[2] = tested on: Stellaria media; assay: Broadleaf weed control (JSM 08-5), Stellaria media; assay type: in vivo
Excerpt: as §1

[3] = tested on: Geranium carolinianum; assay: Broadleaf weed control (JSM 08-5), Geranium carolinianum; assay type: in vivo
Excerpt: as §1

[4] = tested on: large crabgrass; assay: Large crabgrass control comparison; assay type: in vivo, Digitaria spp.; details: 1 to 2 tiller growth stage
[5] = tested on: 'Tifway' bermudagrass; details: in vivo
[6] = tested on: 'Meyer' zoysiagrass; details: in vivo
[7] = tested on: 'Palmetto' St. Augustinegrass; details: in vivo
[8] = tested on: 'Meyer' zoysiagrass; assay: Run one visual turfgrass injury, zoysiagrass (JSM08-6); details: Rate 0.25 kg ai/ha
[9] = tested on: 'Meyer' zoysiagrass; assay: Run two visual turfgrass injury, zoysiagrass (JSM08-15)
[10] = tested on: 'Tifway' bermudagrass; assay: Run one visual turfgrass injury, bermudagrass (JSM 08-4); details: Rate 0.25 kg ai/ha
[11] = tested on: 'Tifway' bermudagrass; assay: Run two visual turfgrass injury, bermudagrass (JSM 08-14)
[12] = tested on: 'Palmetto' St. Augustinegrass; assay: Run one visual turfgrass injury, St. Augustinegrass (JSM 08-8); details: Rate 0.25 kg ai/ha
[13] = tested on: 'Palmetto' St. Augustinegrass; assay: Run two visual turfgrass injury, St. Augustinegrass (JSM08-14)
[14] = tested on: bermudagrass turf; assay: Safening comparison of propoxycarbazone and flucarbazone, bermudagrass injury
[15] = tested on: St. Augustinegrass turf; assay: Safening comparison of propoxycarbazone and flucarbazone, St. Augustinegrass injury
[16] = tested on: bermudagrass turf; assay: Tembotrione safening with flucarbazone, bermudagrass injury; parameters: species or system Cynodon dacytlon; details: in vivo
Excerpt: as §1
Tembotrione is a carotenoid biosynthesis inhibiting herbicide that injures bermudagrass. Table 5 refers to research data evaluating the safening of flucarbazone when combined with tembotrione. Tembotrione applied at 0.023 to 0.092 kg/ha injured bermudagrass turf from 30 to 72%; with the greatest injury occurring at 0.092. All tembotrione plus flucarbazone treatments reduced bermudagrass injury when compared to the equivalent rates of tembotrione alone. Tembotrione (at 0.092 kg/ha) plus flucarbazone at 0.015 or 0.029 kg/ha injured bermudagrass 20; however, flucarbazone at 0.059 reduced bermudagrass injury greater to 8%. It is likely that higher rates of flucarbazone will be needed to provide adequate bermudagrass safening as higher rates of tembotrione are applied.

[17] = tested on: St. Augustinegrass; details: in vivo

In the case of COc1c(Cl)ccc(Cl)c1C(=O)O [Dicamba], the “Weed Control 21 DAT Lamium amplexicaule” value ([1]; Rate 0.28 kg ai/ha) was 10%, the “Weed Control 21 DAT Stellaria media” value ([2]; Rate 0.28 kg ai/ha) was 65% and the “Weed Control 21 DAT Geranium carolinianum” value ([3]; Rate 0.28 kg ai/ha) was 73%.

In the case of COc1nn(C(=O)NS(=O)(=O)c2ccccc2OC(F)(F)F)c(=O)n1C [Flucarbazone, 4,5-dihydro-3-methoxy-4-methyl-5-oxo-N-[2-(trifluoromethoxy)phenylsulfonyl]-1H-1,2,4-triazole-1-carboxamide], the “Weed Control 21 DAT Lamium amplexicaule” value ([1]; Rate 0.007 kg ai/ha) was 3%, the “Weed Control 21 DAT Lamium amplexicaule” value ([1]; Rate 0.029 kg ai/ha) was 10% and the “Weed Control 21 DAT Stellaria media” value ([2]; Rate 0.007 kg ai/ha) was 35%. The “Weed Control 21 DAT Stellaria media” value ([2]; Rate 0.029 kg ai/ha) was 62%, the “Weed Control 21 DAT Geranium carolinianum” value ([3]; Rate 0.007 kg ai/ha) was 62% and the “Weed Control 21 DAT Geranium carolinianum” value ([3]; Rate 0.029 kg ai/ha) was 55%. For the same compound, the “Large Crabgrass Control 21 DAT” value ([4]; Rate 0.009 kg ai/ha) was 17%, the “Large Crabgrass Control 51 DAT” value ([4]; Rate 0.009 kg ai/ha) was 0% and the “Visual Turfgrass Injury ~13 DAT Bermudagrass (JSM 08-4)” value [5] was 0%. The “Visual Turfgrass Injury ~20 DAT Bermudagrass (JSM 08-4)” value [5] was 0%, the “Visual Turfgrass Injury ~13 DAT Zoysiagrass (JSM08-6)” value [6] was 0% and the “Visual Turfgrass Injury ~20 DAT Zoysiagrass (JSM08-6)” value [6] was 0%. The “Visual Turfgrass Injury ~13 DAT St. Augustinegrass (JSM 08-8)” value [7] was 0%.

CS(=O)(=O)c1ccc(C(=O)C2C(=O)CCCC2=O)c([N+](=O)[O-])c1 [Mesotrione, 2-(4-methylsulfonyl-2-nitrobenzoyl)cyclohexane-1,3-dione] was tested, and the “Weed Control 21 DAT Lamium amplexicaule” value ([1]; Rate 0.28 kg ai/ha) was 100%, the “Weed Control 21 DAT Stellaria media” value ([2]; Rate 0.28 kg ai/ha) was 100% and the “Weed Control 21 DAT Geranium carolinianum” value ([3]; Rate 0.28 kg ai/ha) was 20%. The “Large Crabgrass Control 21 DAT” value ([4]; Rate 0.175 kg ai/ha) was 95%, the “Large Crabgrass Control 51 DAT” value ([4]; Rate 0.175 kg ai/ha) was 78% and the “Visual Turfgrass Injury ~13 DAT Zoysiagrass (JSM08-6)” value [8] was 30%. The “Visual Turfgrass Injury ~20 DAT Zoysiagrass (JSM08-6)” value ([8]; rated 22 DAT) was 0%, the “Visual Turfgrass Injury 7 DAT Zoysiagrass (JSM08-15)” value ([9]; Rate 0.18 kg ai/ha) was 18% and the “Visual Turfgrass Injury 21 DAT Zoysiagrass (JSM08-15)” value ([9]; Rate 0.18 kg ai/ha) was 20%. For the same compound, the “Visual Turfgrass Injury 7 DAT Zoysiagrass (JSM08-15)” value ([9]; Rate 0.28 kg ai/ha) was 22%, the “Visual Turfgrass Injury 21 DAT Zoysiagrass (JSM08-15)” value ([9]; Rate 0.28 kg ai/ha) was 23% and the “Visual Turfgrass Injury ~13 DAT Bermudagrass (JSM 08-4)” value [10] was 12%. For the same compound, the “Visual Turfgrass Injury ~20 DAT Bermudagrass (JSM 08-4)” value [10] was 7%, the “Visual Turfgrass Injury 7 DAT Bermudagrass (JSM 08-14)” value ([11]; Rate 0.18 kg ai/ha) was 32% and the “Visual Turfgrass Injury 21 DAT Bermudagrass (JSM 08-14)” value ([11]; Rate 0.18 kg ai/ha) was 23%. For the same compound, the “Visual Turfgrass Injury 7 DAT Bermudagrass (JSM 08-14)” value ([11]; Rate 0.28 kg ai/ha) was 35%, the “Visual Turfgrass Injury 21 DAT Bermudagrass (JSM 08-14)” value ([11]; Rate 0.28 kg ai/ha) was 27% and the “Visual Turfgrass Injury ~13 DAT St. Augustinegrass (JSM 08-8)” value [12] was 5%. For the same compound, the “Visual Turfgrass Injury ~20 DAT St. Augustinegrass (JSM08-8)” value [12] was 12%, the “Visual Turfgrass Injury 7 DAT St. Augustinegrass (JSM08-14)” value ([13]; Rate 0.18 kg ai/ha) was 38% and the “Visual Turfgrass Injury 21 DAT St. Augustinegrass (JSM08-14)” value ([13]; Rate 0.18 kg ai/ha) was 32%. For the same compound, the “Visual Turfgrass Injury 7 DAT St. Augustinegrass (JSM08-14)” value ([13]; Rate 0.28 kg ai/ha) was 40%, the “Visual Turfgrass Injury 21 DAT St. Augustinegrass (JSM08-14)” value ([13]; Rate 0.28 kg ai/ha) was 33% and the “Turfgrass Injury 15 DAT Bermudagrass” value ([14]; Rate 0.42 kg ai/ha) was 28%. For the same compound, the “Turfgrass Injury 15 DAT St. Augustinegrass” value ([15]; Rate 0.42 kg ai/ha) was 35%.

For CCCOc1nn(C(=O)NS(=O)(=O)c2ccccc2C(=O)OC)c(=O)n1C [Propoxycarbazone, methyl 2-[(4,5-dihydro-4-methyl-5-oxo-3-propoxy-1H-1,2,4-triazole-1-carboxamido)sulfonyl]benzoate], the “Turfgrass Injury 15 DAT Bermudagrass” value ([14]; Rate 0.044 kg ai/ha) was 0%, the “Turfgrass Injury 15 DAT Bermudagrass” value ([14]; Rate 0.088 kg ai/ha) was 0% and the “Turfgrass Injury 15 DAT Bermudagrass” value ([14]; Rate 0.177 kg ai/ha) was 0%. The “Turfgrass Injury 15 DAT St. Augustinegrass” value ([15]; Rate 0.044 kg ai/ha) was 0%, the “Turfgrass Injury 15 DAT St. Augustinegrass” value ([15]; Rate 0.088 kg ai/ha) was 0% and the “Turfgrass Injury 15 DAT St. Augustinegrass” value ([15]; Rate 0.177 kg ai/ha) was 0%.

With CS(=O)(=O)c1ccc(C(=O)C2C(=O)CCCC2=O)c(Cl)c1COCC(F)(F)F [Tembotrione, 2-{2-chloro-4-mesyl-3-[(2,2,2-trifluoroethoxy)methyl]benzoyl}cyclohexane-1,3-dione] the “Bermudagrass Injury 23 DAT” value [16] was 0%, the bermudagrass turf injury [16] was 30-72% and the “St. Augustinegrass injury” value [17] was “no injury was observed”.
